Experiments:
mosquitoes [1] = assay: Mosquitoes tracking and locating a human with a fresh coating of DEET on the skin; type: in vivo; settings: fresh coating of DEET mosquito repellent on skin
mosquitoes [2] = assay: Mosquito behaviour at decoy band with a DEET-filled ampoule; type: in vivo; settings: only DEET used in ampoule of decoy band
Text: Initially the scents are designed to attract the mosquitoes preferentially to the band 1. When the mosquito is nearing contact the DEET will interfere with the chemical sensors of the mosquito and they will use only infrared and visual cues. If she is close enough, within roughly three meters, she will be attracted to the dark pupil pattern 5 and infrared emissions on the band 1 and at close range land on the border area 3 of red or pink and the white area 4 of the decoy. If not close enough for visual cues she may then wander off with some dose of DEET to hamper her long-range ability to find prey. By landing on the decoy 3,4,5 the Mosquito will obtain a high concentration of DEET vapor disabling and interfering with her chemical sensors.
Chemicals such as citronella may confuse the mosquito's appetite. […] If the user moves or brushes the mosquito away this may be sufficient to put them far enough away from visual cues to attack again, reducing the chances that she will be able to find an authentic victim. The ampoules 7, 8 can be designed with a desired diffusion delivery rate of DEET and scents 10, 28 in sufficient volume to effectively deliver a steady chemical vapor for days.

[3] = applied on the skin; from the literature search; cited from earlier work
[4] = highest dose (most concentrated DEET sold); cited from earlier work

## CCN(CC)C(=O)c1cccc(C)c1 [DEET, N,N-diethyl-3-methylbenzamide]
Mosquitoes [1]
  ability of mosquitoes to track and locate a human: still able to track and locate a human
Mosquitoes [2]
  mosquito behaviour toward the decoy: repeatably attacking the decoy
[3]
  fraction of DEET absorbed through the skin: 6-15%
[4]
  time DEET remains on the skin: roughly 8 hours
